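Protocol summary: plate cells (96-well), add compound at 5 concentrations, incubate 48 h, interpolate endpoints linearly. GI50 marks 50% less growth. TGI: total growth inhibition.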
Legend:
Test in all cases: NCI-60 cell line screen, 48 h; in the data active = GI50 below about 0.43 µM; inactive = the rest
786-0 renal = system: 786-0 renal
A498 renal = system: A498 renal
A549 NSCLC = system: A549 NSCLC
ACHN renal = system: ACHN renal
BT-549 breast = system: BT-549 breast
CAKI-1 renal = system: CAKI-1 renal
CCRF-CEM leukemia = system: CCRF-CEM leukemia
COLO 205 colon = system: COLO 205 colon
DU-145 prostate = system: DU-145 prostate
EKVX NSCLC = system: EKVX NSCLC
HCC-2998 colon = system: HCC-2998 colon
HCT-116 colon = system: HCT-116 colon
HCT-15 colon = system: HCT-15 colon
HL-60(TB) leukemia = system: HL-60(TB) leukemia
HOP-62 NSCLC = system: HOP-62 NSCLC
HOP-92 NSCLC = system: HOP-92 NSCLC
HS 578T breast = system: HS 578T breast
HT29 colon = system: HT29 colon
IGROV1 ovarian = system: IGROV1 ovarian
K-562 leukemia = system: K-562 leukemia
KM12 colon = system: KM12 colon
LOX IMVI melanoma = system: LOX IMVI melanoma
M14 melanoma = system: M14 melanoma
MALME-3M melanoma = system: MALME-3M melanoma
MCF7 breast = system: MCF7 breast
MDA-MB-231 breast = system: MDA-MB-231 breast
MDA-MB-435 = system: MDA-MB-435
MOLT-4 leukemia = system: MOLT-4 leukemia
NCI-H226 lung = system: NCI-H226 lung
NCI-H23 lung = system: NCI-H23 lung
NCI-H460 lung = system: NCI-H460 lung
NCI-H522 lung = system: NCI-H522 lung
NCI/ADR-RES ovarian = system: NCI/ADR-RES ovarian
OVCAR-3 ovarian = system: OVCAR-3 ovarian
OVCAR-4 ovarian = system: OVCAR-4 ovarian
OVCAR-5 ovarian = system: OVCAR-5 ovarian
OVCAR-8 ovarian = system: OVCAR-8 ovarian
PC-3 prostate = system: PC-3 prostate
RPMI-8226 leukemia = system: RPMI-8226 leukemia
RXF 393 renal = system: RXF 393 renal
SF-268 CNS = system: SF-268 CNS
SF-295 CNS = system: SF-295 CNS
SF-539 CNS = system: SF-539 CNS
SK-MEL-2 melanoma = system: SK-MEL-2 melanoma
SK-MEL-28 melanoma = system: SK-MEL-28 melanoma
SK-MEL-5 melanoma = system: SK-MEL-5 melanoma
SK-OV-3 ovarian = system: SK-OV-3 ovarian
SN12C renal = system: SN12C renal
SNB-19 CNS = system: SNB-19 CNS
SNB-75 CNS = system: SNB-75 CNS
SR leukemia = system: SR leukemia
SW-620 colon = system: SW-620 colon
T-47D breast = system: T-47D breast
TK-10 renal = system: TK-10 renal
U251 CNS = system: U251 CNS
UACC-257 melanoma = system: UACC-257 melanoma
UACC-62 melanoma = system: UACC-62 melanoma
UO-31 renal = system: UO-31 renal

COc1nc(N)nc2c1ncn2[C@@H]1O[C@H](CO)[C@@H](O)[C@@H]1O
> 100 µM: TGI (786-0 renal) | TGI (A498 renal) | TGI (A549 NSCLC) | TGI (ACHN renal) | TGI (BT-549 breast) | TGI (CAKI-1 renal) | TGI (CCRF-CEM leukemia) | TGI (COLO 205 colon) | TGI (DU-145 prostate) | TGI (EKVX NSCLC) | TGI (HCC-2998 colon) | TGI (HCT-116 colon) | TGI (HCT-15 colon) | TGI (HL-60(TB) leukemia) | TGI (HOP-62 NSCLC) | TGI (HOP-92 NSCLC) | TGI (HS 578T breast) | TGI (HT29 colon) | TGI (IGROV1 ovarian) | TGI (K-562 leukemia) | TGI (KM12 colon) | TGI (LOX IMVI melanoma) | TGI (M14 melanoma) | TGI (MALME-3M melanoma) | TGI (MCF7 breast) | TGI (MDA-MB-231 breast) | TGI (MDA-MB-435) | TGI (MOLT-4 leukemia) | TGI (NCI-H226 lung) | TGI (NCI-H23 lung) | TGI (NCI-H460 lung) | TGI (NCI-H522 lung) | TGI (NCI/ADR-RES ovarian) | TGI (OVCAR-3 ovarian) | TGI (OVCAR-4 ovarian) | TGI (OVCAR-5 ovarian) | TGI (OVCAR-8 ovarian) | TGI (PC-3 prostate) | TGI (RPMI-8226 leukemia) | TGI (RXF 393 renal) | TGI (SF-268 CNS) | TGI (SF-295 CNS) | TGI (SF-539 CNS) | TGI (SK-MEL-2 melanoma) | TGI (SK-MEL-28 melanoma) | TGI (SK-MEL-5 melanoma) | TGI (SK-OV-3 ovarian) | TGI (SN12C renal) | TGI (SNB-19 CNS) | TGI (SNB-75 CNS) | TGI (SR leukemia) | TGI (SW-620 colon) | TGI (T-47D breast) | TGI (TK-10 renal) | TGI (U251 CNS) | TGI (UACC-257 melanoma) | TGI (UACC-62 melanoma) | TGI (UO-31 renal)
inactive: GI50 (786-0 renal) > 100 µM | GI50 (A498 renal) > 100 µM | GI50 (A549 NSCLC) > 100 µM | GI50 (ACHN renal) > 100 µM | GI50 (BT-549 breast) > 100 µM | GI50 (CAKI-1 renal) > 100 µM | GI50 (CCRF-CEM leukemia) 2.66 µM | GI50 (COLO 205 colon) > 100 µM | GI50 (DU-145 prostate) > 100 µM | GI50 (EKVX NSCLC) > 100 µM | GI50 (HCC-2998 colon) > 100 µM | GI50 (HCT-116 colon) > 100 µM | GI50 (HCT-15 colon) > 100 µM | GI50 (HL-60(TB) leukemia) > 100 µM | GI50 (HOP-62 NSCLC) > 100 µM | GI50 (HOP-92 NSCLC) > 100 µM | GI50 (HS 578T breast) > 100 µM | GI50 (HT29 colon) > 100 µM | GI50 (IGROV1 ovarian) > 100 µM | GI50 (K-562 leukemia) > 100 µM | GI50 (KM12 colon) > 100 µM | GI50 (LOX IMVI melanoma) > 100 µM | GI50 (M14 melanoma) > 100 µM | GI50 (MALME-3M melanoma) > 100 µM | GI50 (MCF7 breast) > 100 µM | GI50 (MDA-MB-231 breast) > 100 µM | GI50 (MDA-MB-435) > 100 µM | GI50 (MOLT-4 leukemia) 9.51 µM | GI50 (NCI-H226 lung) > 100 µM | GI50 (NCI-H23 lung) > 100 µM | GI50 (NCI-H460 lung) > 100 µM | GI50 (NCI-H522 lung) > 100 µM | GI50 (NCI/ADR-RES ovarian) > 100 µM | GI50 (OVCAR-3 ovarian) > 100 µM | GI50 (OVCAR-4 ovarian) > 100 µM | GI50 (OVCAR-5 ovarian) > 100 µM | GI50 (OVCAR-8 ovarian) > 100 µM | GI50 (PC-3 prostate) > 100 µM | GI50 (RPMI-8226 leukemia) > 100 µM | GI50 (RXF 393 renal) > 100 µM | GI50 (SF-268 CNS) > 100 µM | GI50 (SF-295 CNS) > 100 µM | GI50 (SF-539 CNS) > 100 µM | GI50 (SK-MEL-2 melanoma) > 100 µM | GI50 (SK-MEL-28 melanoma) > 100 µM | GI50 (SK-MEL-5 melanoma) > 100 µM | GI50 (SK-OV-3 ovarian) > 100 µM | GI50 (SN12C renal) > 100 µM | GI50 (SNB-19 CNS) > 100 µM | GI50 (SNB-75 CNS) > 100 µM | GI50 (SR leukemia) > 100 µM | GI50 (SW-620 colon) > 100 µM | GI50 (T-47D breast) > 100 µM | GI50 (TK-10 renal) > 100 µM | GI50 (U251 CNS) > 100 µM | GI50 (UACC-257 melanoma) > 100 µM | GI50 (UACC-62 melanoma) > 100 µM | GI50 (UO-31 renal) > 100 µM

Source: PubChem BioAssay (NCI)
